From patent US5912266A, “Beta2 integrin cell adhesion molecule inhibitors” (American Home Products Corporation, priority 1997, dated 1999)
Where “and” joins values, the source holds several entries; their conditions need not be identical. Identical values can stand only once.

Test system: β1 integrin
Assay: Adhesion of activated, β1 integrin-expressing U937 cells to human fibronectin
Assay type: cell-based
Conditions: for Percent Cells Bound: single well
Procedure: U937 cells, a human monocyte-like, histiocytic lymphoma cell line, was acquired from American Type Culture Collection (ATCC No. CRL-1593). The cells were grown in the culture media described in Example I, materials. Cells were subcultured when the cell density was approximately 1×10^6 cells per ml. The β1 integrins on U937 cells were activated to bind to fibronectin by the addition of PMN Buffer, described in Example I. The human fibronectin (Gibco, No. XOO1) was diluted to 3.5 μg/ml with dPBS. A 1% Bovine Serum Albumin (BSA; Fraction V, ICN Corp., No. 810032) solution was prepared in dPBS and was sterile filtered using a […] disposable filter apparatus (Corning No. 25932-200) before use. The 1% BSA solution was used for blocking non-specific binding sites on the plastic wells of the assay plate. The assay plates used were Corning 96-well EIA/RIA plates (No. 25801).
350 ng of human fibronectin contained in 100 μl of dPBS was added to wells of the assay plate. The control wells were filled with dPBS only. The assay plate was incubated at room temperature for exactly two hours to allow the fibronectin to bind to the assay wells. The fibronectin solution was aspirated from the wells of the assay plate and the wells were washed 3× with 200 μl/well of dPBS. The assay wells were filled with the 1% BSA solution. Additional wells, not coated with fibronectin, were also filled with the 1% BSA solution; these wells were used to measure non-specific cell adherence to the plastic assay plate. The assay plate was incubated for 30 minutes at room temperature. The 1% BSA solution was removed from the wells of the assay plate by aspiration using a multichannel pipettor. The assay wells were washed 3× with 200 μl/well of dPBS. Approximately 50 μl of dPBS was added to the assay wells to ensure that they would not dry out prior to the initiation of the assay.
U937 cells were harvested from culture, washed and labeled with calcein AM fluorescent dye as outlined in Example I, except that the concentration of calcein used to label U937 cells was 12.5 μM and cells were sedimented by centrifugation at 1000 rpm for 5 minutes. After the final wash (see Example I), the U937 cells were resuspended in ice-cold PMN Buffer to 1.25×10^5 cells/40 μl. The cell suspension was placed in the dark at room temperature until needed. The asperlin solutions were prepared as described in Example I.
The 50 μl of dPBS remaining in the wells of the assay plate was removed by inverting the assay plate and tapping on paper toweling. 50 μl of the serially diluted asperlin solution was added to wells of the assay plate. Control wells received PMN buffer containing 2% DMSO and the assay plate was incubated for 10 minutes at room temperature.
Calcein labeled cells, that had been gently mixed by swirling, were added to the wells in 40 μl volumes equal to 1.25×10^5 cells/well and 10 μl of PMA solution was immediately added to the wells of the assay plate and the assay was continued as described in Example 1. 100 μl of PMN buffer was added to all wells of the assay plate. The fluorescence of the adherent, activated β1 integrin expressing cells was measured using a fluorescent plate reader, as described in Example I.
The percentage of β1 integrin expressing cells adhering to fibronectin coated wells was quantitated by the equation: % Cells Bound=((Bound Cell Fluorescence-Average Bound Fluorescence of the Non-specific Binding Control).div.Total Cell Fluorescence)×100.

## CC(=O)OC1C=CC(=O)OC1C1OC1C [Asperlin, 6,7-Anhydro-2,3,8-trideoxy-D-galacto-oct-2-enoic acidδ-lactone 4-acetate]
Asperlin 1.56 μg/ml
  % Inhibition Cell Adhesion: -9%
  Average Percent Bound: 75%
  Bound Cell Fluorescence: 3002 fluorescence units/well and 3140 fluorescence units/well and 3132 fluorescence units/well
  Percent Cells Bound: 75% and 76% and 74%
Asperlin 3.125 μg/ml
  % Inhibition Cell Adhesion: -9%
  Average Percent Bound: 75%
  Bound Cell Fluorescence: 3132 fluorescence units/well and 3140 fluorescence units/well and 2895 fluorescence units/well
  Percent Cells Bound: 76% and 75% and 73%
Asperlin 6.25 μg/ml
  % Inhibition Cell Adhesion: 10%
  Average Percent Bound: 62%
  Bound Cell Fluorescence: 2292 fluorescence units/well and 2344 fluorescence units/well and 2529 fluorescence units/well
  Percent Cells Bound: 60% and 65%
Asperlin 12.5 μg/ml
  % Inhibition Cell Adhesion: -1%
  Average Percent Bound: 70%
  Bound Cell Fluorescence: 2331 fluorescence units/well and 2683 fluorescence units/well and 2985 fluorescence units/well
  Percent Cells Bound: 64% and 71% and 74%
Asperlin 25 μg/ml
  % Inhibition Cell Adhesion: 0%
  Average Percent Bound: 69%
  Bound Cell Fluorescence: 2404 fluorescence units/well and 2870 fluorescence units/well and 2969 fluorescence units/well
  Percent Cells Bound: 61% and 71% and 75%
Asperlin 50 μg/ml
  % Inhibition Cell Adhesion: -6%
  Average Percent Bound: 73%
  Bound Cell Fluorescence: 2391 fluorescence units/well and 2791 fluorescence units/well and 3203 fluorescence units/well
  Percent Cells Bound: 68% and 74% and 77%
Asperlin 100 μg/ml
  % Inhibition Cell Adhesion: 0%
  Average Percent Bound: 69%
  Bound Cell Fluorescence: 2466 fluorescence units/well and 2854 fluorescence units/well and 3194 fluorescence units/well
  Percent Cells Bound: 61% and 70% and 75%
Asperlin 200 μg/ml
  % Inhibition Cell Adhesion: 3%
  Average Percent Bound: 67%
  Bound Cell Fluorescence: 2222 fluorescence units/well and 2736 fluorescence units/well and 2846 fluorescence units/well
  Percent Cells Bound: 61% and 68% and 71%
Summary of Table II
  Effect on adhesion of β1 integrin expressing cells to fibronectin (in words): does not block the adhesion of β1 integrin expressing cells to fibronectin
